Counter-ions that a name gives are not always drawn.
Tests used:
p27 protein = test: Quantification of p27 protein by ELISA (p27 protein-inducing activity, EC50); type: cell-based, human; conditions: NCI-H460 cells, 48 hours, p27 sandwich ELISA
Description: The p27 protein-inducing activities of the compounds or salts listed in Tables 1-1, 1-2 and 2 below were measured as follows.
Preparation of Cell Lysate:
NCI-H460 human non-small cell lung cancer cells (ATCC HTB-177) were plated in 6-well plates at 2×10^5 cells/well and incubated overnight. Then, the test substance was added to the medium to a final concentration of 10000 nmol/L, 3000 nmol/L, 100 nmol/L, 30 nmol/L, 10 nmol/L, 3 nmol/L, 1 nmol/L, 0.3 nmol/L, 0.1 nmol/L, 0.03 nmol/L or 0.01 nmol/L and the cells were incubated at 37° C. in 5% CO2 for 48 hours. 150 μL of Cell Lysis Buffer (catalog no. 9803, Cell Signaling) which had been diluted to 1-fold concentration (1 mM PMSF was added immediately before use) was added, and the mixture was allowed to stand on ice for 10 minutes. The Cell Lysis Buffer in which cells were lysed was collected together with cells with a scraper and transferred to a new tube. It was centrifuged at 15000 rpm for 10 minutes at 4° C. and the supernatant was then transferred to a new tube.
Quantification by Sandwich ELISA:
Anti-p27 monoclonal antibody (catalog no. 71-9600, Zymed) was diluted to 5 μg/mL in 50 mM carbonate coating buffer (0.4 g/L NaCO3, 0.73 g/L NaHCO3 and 0.04 g/L NaN3 in distilled water), and it was then added at 50 μL/well and allowed to stand overnight at 4° C. to bind the antibody. After washing three times with PBS, 200 μL of blocking solution (0.2% I-Block in PBS) was added to each well. After 1 hour of incubation at room temperature, washing with PBS-T (0.05% Tween 20 in PBS) was performed three times. The sample and recombinant p27 protein standard were serially diluted in Cell Lysis Buffer (catalog no. 9803, Cell Signaling) which had been diluted to 1-fold concentration (1 mM PMSF was added immediately before use), and it was then added at 100 μL/well. After 1 hour of incubation at room temperature, washing with 200 μL of PBS-T was performed three times. HRP-labeled anti-p27 antibody (product no. 610243, BD Transdution Laboratories) was diluted 1:2500 (i.e. to 0.1 μg/mL) in 0.2% I-Block/0.05% PBS-T, and it was then added at 100 μL/well. After 1 hour of incubation at room temperature, washing with 200 μL of PBS-T was performed three times. Chromogenic substrate solution (TMB One Solution, catalog no. G7431, Promega) was added at 100 μL/well and allowed to develop a color reaction at room temperature. After stopping the reaction with 50 μL of 1N H2SO4, the absorbance at 450 nm was measured.
Calculation of EC50 Values:
A standard response curve was generated by plotting the amount of p27 protein against the concentration of the test substance. The basal level of response was defined as 0%, while the plateau level where the induction of p27 protein had been maximized was defined as 100%. Finally, the test substance concentration at which 50% induction was achieved was calculated, and it was defined as EC50.

TNF-α = test: Measurement of TNF-α production inhibitory activity in LPS-stimulated THP-1 cells; type: cell-based; conditions: Homo sapiens, overnight, TNF-α in supernatant by ELISA, Table 3
Description: TNF-α is an inflammatory cytokine. It plays an important role in the initiation of inflammation, particularly in rheumatism. The TNF-α production inhibitory activities of the compounds or salts listed in Table 3 below were measured as follows.
THP-1 human monocytic leukemia cells (ATCC) were suspended to a cell density of 5×10^5 cells/mL in RPMI 1640 medium supplemented with 5% inactivated fetal bovine serum, and this suspension was aliquoted into a 96-well round-bottomed tissue culture plate at 0.2 mL/well. A solution of the test substance in DMSO was added to the suspension to a final concentration of […] and the mixture was subjected to pretreatment at 37° C. for 60 minutes. After pretreatment, lipopolysaccharide (LPS) from E. coli 055:B5 was added to a final concentration of […] and the mixture was incubated overnight in a 37° C., 5% CO^2 incubator. Then, the culture supernatant was collected from each well, and the concentration of TNF-α in the supernatant was determined with a human TNF-α ELISA kit (catalog no. KHC3011, BIOSOURCE) according to the manufacturer's instructions. The test substance concentration (IC50) at which 50% inhibition was achieved was calculated from the measurement.

[1] = test system: type II collagen-induced arthritis; conditions: mouse, in vivo
Description: DBA/1JN mice (female, 8 weeks old, Charles River) were injected intradermally at the three sites of the base of the tail with 140 μL/mouse of a collagen gel prepared by mixing equal volumes of 0.3% aqueous bovine type II collagen solution (Collagen Technical Workshop) and complete Freund's adjuvant H37Ra (Difco). After 21 days, the mice were injected intradermally at the three sites of the back with 140 μL/mouse of a collagen gel prepared likewise. […] At every administration, the mice were treated at 0.04 mg/kg, 0.2 mg/kg, 1 mg/kg, 5 mg/kg or 25 mg/kg using 0.5% sodium carboxymethylcellulose as a vehicle. The mice treated with vehicle alone (i.e., the mice that were not treated with the test substance) were used as controls.
After the first collagen injection, arthritis score of each mouse was measured with time. The arthritis score was calculated by giving scores for both the toes and backs of all four paws of the mouse on the scale below and adding them together (the maximum possible total is 4 per paw and 16 per mouse).
Score 1: Moderate swelling

| Compound | EC50 (p27 protein; Table 1-2) | EC50 (p27 protein; Table 2) | IC50 (TNF-α) | other results |
| --- | --- | --- | --- | --- |
| CNS(=O)(=O)Nc1cccc(Cc2c(C)c3cc(Cl)c(OC(=O)N(C)C)cc3oc2=O)c1 [Compound 1j-1-3-2, Dimethylcarbamic acid 3-(3-(N-methylsulfamoyl)aminobenzyl)-6-chloro-4-methyl-2-oxo-2H-1-benzopyran-7-yl ester] |  |  | 1.86 nM | EC50 (p27 protein; Table 1-1): 54 nM |
| Cc1c(Cc2cccc(NS(N)(=O)=O)c2F)c(=O)oc2cc(OC(=O)N(C)C)c(F)cc12 [Compound 1j-1-5-1, Dimethylcarbamic acid 3-{2-fluoro-3-(aminosulfonyl)aminobenzyl}-6-fluoro-4-methyl-2-oxo-2H-1-benzopyran-7-yl ester] |  |  | 0.93 nM | EC50 (p27 protein; Table 1-1): 590 nM |
| CNS(=O)(=O)Nc1cc(Cc2c(C)c3ccc(OC(=O)N(C)C)cc3oc2=O)ccn1 [Compound 1j-1-10-2, Dimethylcarbamic acid 4-methyl-3-{2-(methylaminosulfonyl)-aminopyridin-4-ylmethyl}-2-oxo-2H-1-benzopyran-7-yl ester] | 370 nM |  | 10.3 nM |  |
| CNS(=O)(=O)Nc1cc(Cc2c(C)c3cc(F)c(OC(=O)N(C)C)cc3oc2=O)ccn1 [Compound 1j-1-11-2, Dimethylcarbamic acid 4-methyl-3-{2-(methylaminosulfonyl)aminopyridin-4-ylmethyl}-6-fluoro-2-oxo-2H-1-benzopyran-7-yl ester] | 330 nM |  | 5.19 nM |  |
| CNS(=O)(=O)Nc1cccc(Cc2c(C)c3ccc(Oc4ncccn4)cc3oc2=O)c1F [Compound 1j-2-4-2, 3-{2-Fluoro-3-(methylaminosulfonyl)aminobenzyl}-4-methyl-7-(pyrimidin-2-yloxy)-2-oxo-2H-1-benzopyran] |  | 730 nM | 15.3 nM |  |
| CNS(=O)(=O)Nc1cccc(Cc2c(C)c3ccc(Oc4ncccn4)cc3oc2=O)c1F [Compound 1j-2-4-2Na, 3-{2-fluoro-3-(methylaminosulfonyl)aminobenzyl}-4-methyl-7-(pyrimidin-2-yloxy)-2-oxo-2H-1-benzopyran sodium salt] |  |  |  | type II collagen-induced arthritis (arthritis score) compared to the control group [1]: suppressed; type II collagen-induced arthritis (arthritis score), dose dependence [1]: dose-dependently suppressed |
| CNS(=O)(=O)Nc1cc(Cc2c(C)c3cc(C)c(Oc4nccs4)cc3oc2=O)ccn1 [Compound 1j-3-20-2, 3-{2-(Methylaminosulfonyl)aminopyridin-4-ylmethyl}-4-methyl-6-methyl-7-(thiazol-2-yloxy)-2-oxo-2H-1-benzopyran] | 100 nM |  |  |  |
| CNS(=O)(=O)Nc1nccc(Cc2c(C)c3cc(C)c(Oc4nccs4)cc3oc2=O)c1Cl [Compound 1j-3-44-2, 3-{2-(Methylaminosulfonyl)amino-3-chloropyridin-4-ylmethyl}-4-methyl-6-methyl-7-(thiazol-2-yloxy)-2-oxo-2H-1-benzopyran] | 202 nM |  |  |  |
| CNC(=O)CS(=O)(=O)Nc1cccc(Cc2c(C)c3cc(Cl)c(OC(=O)N(C)C)cc3oc2=O)c1 [Compound 1o-1-3-2, Dimethylcarbamic acid 3-(3-methylcarbamoylmethanesulfonylamino-benzyl)-6-chloro-4-methyl-2-oxo-2H-1-benzopyran-7-yl ester] |  |  |  | EC50 (p27 protein; Table 1-1): 290 nM |
| Cc1c(Cc2cccc(NS(=O)(=O)CC(=O)N(C)C)c2)c(=O)oc2cc(OC(=O)N(C)C)c(Cl)cc12 [Compound 1o-1-3-3, Dimethylcarbamic acid 3-(3-dimethylcarbamoylmethanesulfonylamino-benzyl)-6-chloro-4-methyl-2-oxo-2H-1-benzopyran-7-yl ester] |  |  |  | EC50 (p27 protein; Table 1-1): 190 nM |
| CNC(=O)CS(=O)(=O)Nc1cccc(Cc2c(C)c3ccc(Oc4nccs4)cc3oc2=O)c1F [Compound 1o-3-4-2, 2-{2-Fluoro-3-[4-methyl-2-oxo-7-(thiazol-2-yloxy)-2H-1-benzopyran-3-ylmethyl]phenylsulfamoyl}-N-methyl-acetamide] |  | 2660 nM |  |  |

Second part, led by results:

| EC50 (p27 protein; Table 1-2) | EC50 (p27 protein; Table 2) | Compound | IC50 (TNF-α) | other results |
| --- | --- | --- | --- | --- |
|  | 1840 nM | Cc1c(Cc2cccc(NS(N)(=O)=O)c2F)c(=O)oc2cc(Oc3ncccn3)ccc12 [Compound 1j-2-4-1, 3-{2-Fluoro-3-(aminosulfonyl)aminobenzyl}-4-methyl-7-(pyrimidin-2-yloxy)-2-oxo-2H-1-benzopyran] | 25.9 nM |  |
|  | 530 nM | CNS(=O)(=O)Nc1cccc(Cc2c(CF)c3ccc(Oc4ncccn4)cc3oc2=O)c1F [Compound 1j-2-4-2F, 3-{2-Fluoro-3-(methylaminosulfonyl)aminobenzyl}-4-fluoromethyl-7-(pyrimidin-2-yloxy)-2-oxo-2H-1-benzopyran] | 9.14 nM |  |
|  | 417 nM | CNS(=O)(=O)Nc1cccc(Cc2c(C)c3cc(F)c(Oc4ncccn4)cc3oc2=O)c1F [Compound 1j-2-5-2, 3-{2-Fluoro-3-(methylaminosulfonyl)aminobenzyl}-4-methyl-7-(pyrimidin-2-yloxy)-6-fluoro-2-oxo-2H-1-benzopyran] | 14.9 nM |  |
| 425 nM |  | Cc1c(Cc2cccc(NS(N)(=O)=O)c2F)c(=O)oc2cc(Oc3nccs3)ccc12 [Compound 1j-3-4-1, 3-{2-Fluoro-3-(aminosulfonyl)aminobenzyl}-4-methyl-7-(thiazol-2-yloxy)-2-oxo-2H-1-benzopyran] | 7.36 nM |  |
| 267 nM |  | CNS(=O)(=O)Nc1cccc(Cc2c(C)c3ccc(Oc4nccs4)cc3oc2=O)c1F [Compound 1j-3-4-2, 3-{2-Fluoro-3-(methylaminosulfonyl)aminobenzyl}-4-methyl-7-(thiazol-2-yloxy)-2-oxo-2H-1-benzopyran] | 1.84 nM |  |

— patent US8569378B2, “p27 protein inducer” (Chugai Seiyaku Kabushiki Kaisha, priority 2007, dated 2013)
